Data from US6864246B2, “Anilide and cyclodextrin complexes, their preparation and their use as medicine in particular for treating dyslipidemiae” (Pierre Fabre Medicament, priority 2001, dated 2005).
≈ marks a conversion by molar mass, not a printed value. Like-named read-outs stand apart in the source and are kept apart here.

Key:
[1] = 25° C.; cited from earlier work
[2] = physchem; conditions: 25 °C, aqueous with cosolvent or surfactant or cyclodextrin, thermodynamic from solid
[3] = 1 h
[4] = Solubility at saturation of F12511 in solvents at 25° C.; type: physicochemical; conditions: thermodynamic from solid
Protocol: By way of example, the table below gives some characteristic solubilities at saturation, at 25° C.: […]

[5] = Amount of F12511 solubilized in a solution of sodium lauryl sulfate at 5%

For `OC[C@H]1O[C@@H]2O[C@H]3[C@H](O)[C@@H](O)[C@@H](O[C@H]4[C@H](O)[C@@H](O)[C@@H](O[C@H]5[C@H](O)[C@@H](O)[C@@H](O[C@H]6[C@H](O)[C@@H](O)[C@@H](O[C@H]7[C@H](O)[C@@H](O)[C@@H](O[C@H]1[C@H](O)[C@H]2O)O[C@@H]7CO)O[C@@H]6CO)O[C@@H]5CO)O[C@@H]4CO)O[C@@H]3CO` [α-cyclodextrin], the Water-solubility [1] is given as 14.2 g % ml,.

Work on `CCCCCCCCCCCCS[C@H](C(=O)Nc1cc(C)c(O)c(C)c1C)c1ccccc1` [Example F12511, (S)-2′,3′,5′-trimethyl-4′-hydroxy-α-dodecylthiophenylacetanilide] yielded a solubility at 2 h ([2]; Amount of F12511 solubilized) of ~10 µg/mL (≈ 21.3 µM), a solubility at 5 min [2, 5] of 1 µg/mL (≈ 2.13 µM) and a solubility at 30 min [2, 5] of 3 µg/mL (≈ 6.39 µM). The solubility at 1 h [2, 5] was 5 µg/mL (≈ 10.6 µM), the solubility at 2 h [2, 5] was 11 µg/mL (≈ 23.4 µM) and the “Amount of F12511 solubilized in a solution of sodium lauryl sulfate at 5%” value [3] was 5 µg/mL. The solubility ([4]; Macrogol 400, 25 °C, organic solvent or mixture, Macrogol 400, 25° C., read-out: Solubility at saturation) was 1000 µg/mL (≈ 2130 µM), the solubility ([4]; corn oil, 25 °C, oil or lipid, Corn oil, 25° C., read-out: Solubility at saturation) was 300 µg/mL (≈ 639 µM) and the solubility ([4]; ethanol, 25 °C, organic solvent or mixture, Ethanol, 25° C., read-out: Solubility at saturation) was 7000 µg/mL (≈ 14900 µM). For the same compound, the solubility ([4]; ethyl alcohol at 95%, 25 °C, organic solvent or mixture, ethyl alcohol at 95%, read-out: Solubility at saturation) was ≤ 2000 µg/mL, the solubility ([4]; water, 25 °C, water, Water, 25° C., limit of analytical detection, read-out: Solubility at saturation) was < 0.05 µg/mL and the solubility ([4]; water, 25 °C, water, water, limit of analytical detection, read-out: Solubility at saturation in water) was < 0.05 µg/mL.
